Measurements taken from US20110288176A1, “[…] ACID-CONTAINING COMPOSITION FOR PREVENTION OR TREATMENT OF […]-RELATED DISEASES AND METHOD FOR PREVENTION OR TREATMENT OF […]-RELATED DISEASES USING THE SAME” (priority 2008, published 2011).

Biological target: T1, Transglutaminase 2 (Cavia cutleri, UniProt P08587)
T1 construct: purchased Sigma-Aldrich T5398
T1 sequence (P08587 1-690): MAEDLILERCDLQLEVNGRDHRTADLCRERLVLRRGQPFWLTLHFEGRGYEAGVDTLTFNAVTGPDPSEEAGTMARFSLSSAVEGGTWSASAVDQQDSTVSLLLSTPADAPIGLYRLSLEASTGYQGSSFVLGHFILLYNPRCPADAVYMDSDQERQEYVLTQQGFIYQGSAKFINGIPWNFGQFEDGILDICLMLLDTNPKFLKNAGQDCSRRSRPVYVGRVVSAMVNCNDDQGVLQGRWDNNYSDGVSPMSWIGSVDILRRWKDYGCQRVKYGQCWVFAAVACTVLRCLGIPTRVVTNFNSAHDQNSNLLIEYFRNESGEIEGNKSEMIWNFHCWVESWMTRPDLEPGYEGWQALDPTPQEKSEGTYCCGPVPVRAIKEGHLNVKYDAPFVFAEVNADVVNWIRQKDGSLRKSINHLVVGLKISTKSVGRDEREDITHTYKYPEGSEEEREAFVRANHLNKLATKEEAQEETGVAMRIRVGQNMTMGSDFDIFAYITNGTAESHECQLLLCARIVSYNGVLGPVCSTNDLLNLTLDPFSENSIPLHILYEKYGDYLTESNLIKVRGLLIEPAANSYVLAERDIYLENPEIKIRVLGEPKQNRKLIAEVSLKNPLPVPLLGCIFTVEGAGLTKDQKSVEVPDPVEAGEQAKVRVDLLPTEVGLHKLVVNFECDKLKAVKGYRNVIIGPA
Assay: In vitro assay for inhibition of transglutaminase activity ([1,4-14C]putrescine incorporation into succinylated casein)
Format: biochemical
Conditions: for activity of transglutaminase, Mean: mean of three assays
Protocol: Succinylated casein was purchased from Calbiochem (Cat. No. 573464), and 1 g of the powder was dissolved in 50 ml of a reaction buffer solution containing 5 mM DTT (0.1 M Tris-acetate (pH 8.0), 10 mM CaCl2, 0.15 M NaCl, 1.0 mM EDTA). This solution was stored in a deep freezer for further use. [1,4-^14C] Putrescine dihydrochloride was purchased from GE Healthcare (Cat. No. CFA301), and the stock solution was diluted with distilled water to yield a radiological dose of 5 μCi/ml. Transglutaminase 2 was purchased from Sigma-Aldrich (Cat. No. T5398), and diluted with distilled water to yield a final concentration of 1 unit/ml.
450 μl of succinylated casein solution and 50 μl of [1,4-^14C] putrescine dihydrochloride solution were mixed together to prepare a substrate solution. […] 500 μl of the substrate solution β and 100 μl of sample solution were mixed well, and the mixture was incubated at 37° C. for 2 hrs, before termination with 4.5 ml of cold (4° C.) 7.5% TCA. The final solution was stored at 4° C. for 1 hr. The TCA-protein precipitates were filtered through a GF/glass fiber filter, washed with 25 ml of cold 5% TCA, and dried.

[1] = 5 μM ethacrynic acid, relative to DMSO control (=1.0000)
[2] = 10 μM ethacrynic acid, relative to DMSO control (=1.0000)
[3] = 25 μM ethacrynic acid, relative to DMSO control (=1.0000)
[4] = 50 μM ethacrynic acid, relative to DMSO control (=1.0000)

C=C(CC)C(=O)c1ccc(OCC(=O)O)c(Cl)c1Cl [ethacrynic acid, 2-[2,3-dichloro-4-(2-methylidenebuanoyl)phenoxy]acetic acid]
activity of transglutaminase, Mean [1]: 0.4796
activity of transglutaminase, Assay 1 (5 μM ethacrynic acid, radioactivity of cross-linked protein relative to DMSO control (=1.0000)): 0.5667
activity of transglutaminase, Assay 2 [1]: 0.4572
activity of transglutaminase, Assay 3 [1]: 0.4148
activity of transglutaminase, Mean [2]: 0.3752
activity of transglutaminase, Assay 1 [2]: 0.4319
activity of transglutaminase, Assay 2 [2]: 0.3654
activity of transglutaminase, Assay 3 [2]: 0.3281
activity of transglutaminase, Mean [3]: 0.1935
activity of transglutaminase, Assay 1 [3]: 0.2337
activity of transglutaminase, Assay 2 [3]: 0.1812
activity of transglutaminase, Assay 3 [3]: 0.1656
activity of transglutaminase, Mean [4]: 0.0736
activity of transglutaminase, Assay 1 [4]: 0.0763
activity of transglutaminase, Assay 2 [4]: 0.0799
activity of transglutaminase, Assay 3 [4]: 0.0645
inhibition of transglutaminase activity (in words) (FIG. 1): inhibited in an ethacrynic acid concentration-dependent manner
